{"source": "patent EP0574185B1", "about": "“PGE1 analogs” (NEWPHARMA INTERNATIONAL CORPORATION, priority 1992, dated 1993)", "key": {"[1]": {"tested_on": "isolated uterus under diestrous (without any spontaneous contractions)", "assay": "B2: effect on isolated uterus of diestrous rat without spontaneous contractions (De Jalon solution with sodium diclofenac, non-cumulative curves)", "set-up": "species or system Wistar rats", "conditions": "for Area (g of tension/2 min): B2, basal 1,96", "description": "(B1)- Concentration-response curves on isolated rat uterus under diestrous condition were carried out. Wistar rats weighing 250 g to 300 g were employed. The diestrous phase was detected by a daily vaginal smear. The uterus was dissected out and a portion of a horn was placed in a 10 ml organ bath in a similar way to that described in part A. The bath temperature was maintained at 37°C, bubbled with a mixture of 95 % O2 and 5 % CO2 in a Krebs nutrient solution. The organ was left to stabilize for one hour. The isolated uterus presented basal spontaneous contractions under these experimental conditions. Cumulative concentration-response curves were carried out with the addition of either 100 µl or 300 µl of solutions of either natural prostaglandins or B-407 in concentrations of 10^-10 M to 10^-6 M, each 15 minutes without any washing. Uterine contractions and quantitation were performed as described in (A). (B2)- Concentration-response curves in isolated uterus under diestrous (without any spontaneous contractions) were carried out. Sodium diclofenac was added to De Jalon nutrient solution to a final concentration of 4x10^-6 M. The organ was left to stabilize until the absence of spontaneous contractions. Non-cumulative concentration-response curves were obtained. Recordings of the contractions and their quantitation were performed as described in (A).\nThe frequency and magnitude of the responses were globally evaluated by calculating the total area recorded at a fixed time period as will be further explained. The areas under the curve of the recording paper, over 15 minutes periods, were cut and weighed both in the concentration-response curves and in the potentiating experiments.\nThe calibration was made by weighing a piece of paper which corresponded to a tension of 1 g at the working sensitivity along 2 minutes. Therefore, a relationship of area expressed in g/2 min was obtained and then the weights of the areas of the responses were transformed to unities of area. The results were expressed as the mean ± the standard error of the areas obtained. The statistical evaluation of the differences was carried out either by ANOVA or by Student's-t-test, as appropriate."}, "guinea pigs": {"tested_on": "guinea pigs", "assay": "Histamine-aerosol induced bronchoconstriction in guinea pig", "assay_type": "in vivo", "conditions": "150 µg/kg, i.p., 5 minutes before histamine challenge; n= 8; initial 115 ± 6, final 127 ± 4", "description": "The protective effect of B-407 on the bronchoconstriction induced by histamine aerosol in male guinea pigs weighing 700 g was evaluated. One guinea pig at a time was placed into a 15 l hermetically closed container. Then 200 µl of histamine solution (600 µg of histamine base) was sprayed with compressed air at a pressure of 1 PSI. The time at which the hypoxic symptoms (increase of breathing frequency, bronchospasm, dysnea, apnea and finally the collapse of the animal (falling down) was determined.\nThe working protocol comprised 3 parts: • 1) The determination of the falling down time of the guinea pigs exposed to the histamine aerosol was determined.\nThe results were expressed as the time in seconds elapsed before the animals fell down [\"Antihistamine Agents\" (Cap. 22) in: \"Screening Methods in Pharmacology\". Academic Press, New York (1965). Brit. J. Pharmacology. 16, 59 (1961); Arch. Intern. Pharmacodyn. 129, 77 (1960); J. Pharmacol. Exptl. Therap. 131, 73 (1961); Arch. Intern. Pharmacodyn. 115, 332 (1958); \"Les Antihistaminiques de Synthése\", Chapter 22, page 784 in : \"Structure et activité pharmacodynamique de medicaments du systéme nerveux vegetatif\". S. Karger Bale (Suisse)- New York: (1948)]."}, "[2]": {"assay": "Diarrheagenic effect in mice", "set-up": "species or system Swiss mice", "conditions": "mouse, in vivo", "description": "The diarrheagenic effect of the synthetic PGE1 analog B-407 was evaluated in Swiss mice. The effect of the intraperitoneal and intravaginal routes of administration were studied as follows:\nSix groups of ten mice (25 to 30 g) each (5 ♂ and 5 ♀) were used. They received i.p. doses of 0; 1; 3; 10; 30 and 100 µg/kg of the test drug. The diarrheagenic response was evaluated on an \"all-or-none\" basis as described in section C.\nA seven points dose-response curve was performed for B-407. Eight groups of six mice (18 to 25 g) each received doses of 0; 10; 18; 32; 56; 100; 160 and 250 µg/kg of B-407.\nThe intravaginal administration was made through a polyethylene catheter attached to a 1 ml syringe. This system allows the delivery of volumes of 10 to 15 µl.\nThe animals were evaluated in an \"all-or-none\" basis as the ratio of the number of animals with diarrhea over the total number of mice in the group. The median effective doses (ED50) with their fiducial limits and the statistics were performed according Litchfield and Wilcoxon [Eur. J. Pharmacol. 34, 105 (1975); J. Pharmacol. Exp. Ther., 96, 99 (1949)]."}, "rat uterus": {"tested_on": "rat uterus", "assay": "Disappearance of exogenous PGF2α in rat uterus slices (R.I.A.)", "set-up": "species or system Wistar rats", "description": "An experiment was performed in which the disappearance of exogenous PGF2α was determined in the nutrient solution of slices of rat uterus both in the presence and absence of the synthetic PGE1 analog, B-407.\nSeven Wistar rats weighing approximately 220 g were estrogenized by the subcutaneous administration of 100 µg/kg of 17β estradiol. Twenty-four hours later they were killed by decapitation. The uterine horns were dissected out and weighed. The horns were cut and washed with bubbled De Jalon nutrient solution plus 4x10^-7 M sodium diclofenac during 15 to 20 minutes. Both bubbling and diclofenac content were maintained in the following steps: each horn was then placed in a small organ bath and preincubated during 15 to 20 min with either the nutrient solution alone or containing B-407 10^-8 M or 10^-7 M. The assay was started by adding exogenous PGF2α (10^-8 M in the medium) to each horn previously changed to a new tube. A final volume of 0.4 ml was obtained with the addition of De Jalon solution at 37°C. Aliquots of […] were sampled at 0 min, 5 min, 15 min and 30 min. The PGF2α concentration in each sample was determined by R.I.A. (Sigma, NEN) and it was expressed as pg/mg of wet tissue."}}, "data": [{"molecule": "CCCCC(C)(O)C/C=C/[C@H]1[C@H](O)CC(=O)[C@@H]1CCCC/C=C/C(=O)OC", "note": "(mixture of isomers) [B-407, trans-Δ^2-15-deoxy-16-hydroxy-16-methyl PGE1 methyl ester]", "values": [{"measurement": "maximum response of the uterotonic effect relative to the basal one", "setting": "[1]; B2, with diclofenac", "value": "duplicates the basal one"}, {"measurement": "Area (g of tension/2 min)", "setting": "[1]; 1x10^-6 M", "value": "4,24 g of tension/2 min"}, {"measurement": "Area (g of tension/2 min)", "setting": "[1]; 1x10^-7 M", "value": "3,73 g of tension/2 min"}, {"measurement": "Area (g of tension/2 min)", "setting": "[1]; 1x10^-8 M", "value": "2,10 g of tension/2 min"}, {"measurement": "Area (g of tension/2 min)", "setting": "[1]; 1x10^-9 M", "value": "1,91 g of tension/2 min"}, {"measurement": "Falling down time (sec) by bronchospasm", "setting": "guinea pigs", "value": "358 ± 4", "unit": "s"}, {"measurement": "ED50", "setting": "[2]; ip, confidence limits 1,95 to 8,65, n 10", "value": 0.00412, "unit": "mg/kg"}, {"measurement": "ED50", "setting": "[2]; i.vag., confidence limits 27,4 to 124,9, n 6", "value": 0.0583, "unit": "mg/kg"}, {"measurement": "PGF2α (pg/mg tissue)", "setting": "rat uterus; B-407 10^-7 M, time 0 min, control 655,4", "value": "667,2 pg/mg tissue"}, {"measurement": "PGF2α (pg/mg tissue)", "setting": "rat uterus; B-407 10^-7 M, time 5 min, control 582.8", "value": "623,7 pg/mg tissue"}, {"measurement": "PGF2α (pg/mg tissue)", "setting": "rat uterus; B-407 10^-7 M, time 15 min, control 478.4", "value": "561,7 pg/mg tissue"}, {"measurement": "PGF2α (pg/mg tissue)", "setting": "rat uterus; B-407 10^-7 M, time 30 min, control 227.5", "value": "528,4 pg/mg tissue"}, {"measurement": "PGF2α (pg/mg tissue)", "setting": "rat uterus; B-407 10^-8 M, time 0 min, control 655,4", "value": "705,7 pg/mg tissue"}, {"measurement": "PGF2α (pg/mg tissue)", "setting": "rat uterus; B-407 10^-8 M, time 5 min, control 582.8", "value": "705,9 pg/mg tissue"}, {"measurement": "PGF2α (pg/mg tissue)", "setting": "rat uterus; B-407 10^-8 M, time 15 min, control 478.4", "value": "563,6 pg/mg tissue"}, {"measurement": "PGF2α (pg/mg tissue)", "setting": "rat uterus; B-407 10^-8 M, time 30 min, control 227.5", "value": "403,7 pg/mg tissue"}]}]}
